± gives the expanded uncertainty stated by the source.
Assay: molar heat capacity at constant pressure; xn = mol fraction of the nth substance listed
Details: 101.3 kPa, Liquid, Small sample (50 mg) DSC

## CCC(C)(C)O [2-methylbutan-2-ol] + CCCCCCC
318.15 K, x1 = 0.4051
  molar heat capacity at constant pressure: 268.55 ± 4.2 J/K/mol
318.15 K, x1 = 0.4986
  molar heat capacity at constant pressure: 270.68 ± 4.2 J/K/mol
318.15 K, x1 = 0.5981
  molar heat capacity at constant pressure: 271.65 ± 4.2 J/K/mol
318.15 K, x1 = 0.7015
  molar heat capacity at constant pressure: 272.08 ± 4.2 J/K/mol
318.15 K, x1 = 0.8023
  molar heat capacity at constant pressure: 271.36 ± 4.2 J/K/mol
318.15 K, x1 = 0.9139
  molar heat capacity at constant pressure: 270.14 ± 4.2 J/K/mol
318.15 K, x1 = 0.9609
  molar heat capacity at constant pressure: 269.17 ± 4.2 J/K/mol
319.15 K, x1 = 0.0061
  molar heat capacity at constant pressure: 232.58 ± 3.6 J/K/mol
319.15 K, x1 = 0.0494
  molar heat capacity at constant pressure: 240.63 ± 3.7 J/K/mol
319.15 K, x1 = 0.1
  molar heat capacity at constant pressure: 249.49 ± 3.9 J/K/mol
319.15 K, x1 = 0.1547
  molar heat capacity at constant pressure: 255.72 ± 4 J/K/mol
319.15 K, x1 = 0.1999
  molar heat capacity at constant pressure: 259.62 ± 4 J/K/mol
319.15 K, x1 = 0.2993
  molar heat capacity at constant pressure: 265.58 ± 4.1 J/K/mol
319.15 K, x1 = 0.4051
  molar heat capacity at constant pressure: 269.3 ± 4.2 J/K/mol
319.15 K, x1 = 0.4986
  molar heat capacity at constant pressure: 271.51 ± 4.2 J/K/mol
319.15 K, x1 = 0.5981
  molar heat capacity at constant pressure: 272.56 ± 4.2 J/K/mol
319.15 K, x1 = 0.7015
  molar heat capacity at constant pressure: 273.04 ± 4.2 J/K/mol
319.15 K, x1 = 0.8023
  molar heat capacity at constant pressure: 272.38 ± 4.2 J/K/mol
319.15 K, x1 = 0.9609
  molar heat capacity at constant pressure: 270.15 ± 4.2 J/K/mol
319.16 K, x1 = 0.0249
  molar heat capacity at constant pressure: 235.12 ± 3.6 J/K/mol
319.16 K, x1 = 0.9139
  molar heat capacity at constant pressure: 271.16 ± 4.2 J/K/mol
320.14 K, x1 = 0.0061
  molar heat capacity at constant pressure: 232.92 ± 3.6 J/K/mol
320.14 K, x1 = 0.0249
  molar heat capacity at constant pressure: 235.28 ± 3.6 J/K/mol
320.14 K, x1 = 0.0494
  molar heat capacity at constant pressure: 240.72 ± 3.7 J/K/mol
320.14 K, x1 = 0.1
  molar heat capacity at constant pressure: 249.68 ± 3.9 J/K/mol
320.14 K, x1 = 0.1547
  molar heat capacity at constant pressure: 255.93 ± 4 J/K/mol
320.14 K, x1 = 0.1999
  molar heat capacity at constant pressure: 260.03 ± 4 J/K/mol
320.14 K, x1 = 0.2993
  molar heat capacity at constant pressure: 266.13 ± 4.1 J/K/mol
320.14 K, x1 = 0.4051
  molar heat capacity at constant pressure: 269.96 ± 4.2 J/K/mol
320.14 K, x1 = 0.4986
  molar heat capacity at constant pressure: 272.22 ± 4.2 J/K/mol
320.14 K, x1 = 0.5981
  molar heat capacity at constant pressure: 273.33 ± 4.2 J/K/mol
320.14 K, x1 = 0.7015
  molar heat capacity at constant pressure: 273.87 ± 4.2 J/K/mol
320.14 K, x1 = 0.8023
  molar heat capacity at constant pressure: 273.27 ± 4.2 J/K/mol
320.14 K, x1 = 0.9139
  molar heat capacity at constant pressure: 272.09 ± 4.2 J/K/mol
320.14 K, x1 = 0.9609
  molar heat capacity at constant pressure: 270.99 ± 4.2 J/K/mol
321.15 K, x1 = 0.0061
  molar heat capacity at constant pressure: 233.36 ± 3.6 J/K/mol
321.15 K, x1 = 0.0249
  molar heat capacity at constant pressure: 235.64 ± 3.6 J/K/mol
321.15 K, x1 = 0.0494
  molar heat capacity at constant pressure: 240.94 ± 3.7 J/K/mol
321.15 K, x1 = 0.1
  molar heat capacity at constant pressure: 249.94 ± 3.9 J/K/mol
321.15 K, x1 = 0.1547
  molar heat capacity at constant pressure: 256.42 ± 4 J/K/mol
321.15 K, x1 = 0.1999
  molar heat capacity at constant pressure: 260.55 ± 4 J/K/mol
321.15 K, x1 = 0.2993
  molar heat capacity at constant pressure: 266.78 ± 4.1 J/K/mol
321.15 K, x1 = 0.4051
  molar heat capacity at constant pressure: 270.74 ± 4.2 J/K/mol
321.15 K, x1 = 0.4986
  molar heat capacity at constant pressure: 273.12 ± 4.2 J/K/mol
321.15 K, x1 = 0.5981
  molar heat capacity at constant pressure: 274.26 ± 4.2 J/K/mol
321.15 K, x1 = 0.7015
  molar heat capacity at constant pressure: 274.94 ± 4.3 J/K/mol
321.15 K, x1 = 0.8023
  molar heat capacity at constant pressure: 274.3 ± 4.2 J/K/mol
321.15 K, x1 = 0.9139
  molar heat capacity at constant pressure: 273.21 ± 4.2 J/K/mol
321.15 K, x1 = 0.9609
  molar heat capacity at constant pressure: 272.08 ± 4.2 J/K/mol
322.15 K, x1 = 0.0061
  molar heat capacity at constant pressure: 233.83 ± 3.6 J/K/mol
322.15 K, x1 = 0.0249
  molar heat capacity at constant pressure: 235.95 ± 3.7 J/K/mol
322.15 K, x1 = 0.0494
  molar heat capacity at constant pressure: 241.13 ± 3.7 J/K/mol
322.15 K, x1 = 0.1
  molar heat capacity at constant pressure: 250.19 ± 3.9 J/K/mol
322.15 K, x1 = 0.1547
  molar heat capacity at constant pressure: 256.8 ± 4 J/K/mol
322.15 K, x1 = 0.1999
  molar heat capacity at constant pressure: 261.03 ± 4 J/K/mol
322.15 K, x1 = 0.2993
  molar heat capacity at constant pressure: 267.36 ± 4.1 J/K/mol
322.15 K, x1 = 0.4051
  molar heat capacity at constant pressure: 271.46 ± 4.2 J/K/mol
322.15 K, x1 = 0.4986
  molar heat capacity at constant pressure: 273.9 ± 4.2 J/K/mol
322.15 K, x1 = 0.5981
  molar heat capacity at constant pressure: 275.18 ± 4.3 J/K/mol
322.15 K, x1 = 0.7015
  molar heat capacity at constant pressure: 275.82 ± 4.3 J/K/mol
322.15 K, x1 = 0.8023
  molar heat capacity at constant pressure: 275.19 ± 4.3 J/K/mol
322.15 K, x1 = 0.9139
  molar heat capacity at constant pressure: 274.13 ± 4.2 J/K/mol
322.15 K, x1 = 0.9609
  molar heat capacity at constant pressure: 272.97 ± 4.2 J/K/mol
323.14 K, x1 = 0.0061
  molar heat capacity at constant pressure: 234.21 ± 3.6 J/K/mol
323.14 K, x1 = 0.0249
  molar heat capacity at constant pressure: 236.15 ± 3.7 J/K/mol
323.14 K, x1 = 0.0494
  molar heat capacity at constant pressure: 241.26 ± 3.7 J/K/mol
323.14 K, x1 = 0.1
  molar heat capacity at constant pressure: 250.37 ± 3.9 J/K/mol
323.14 K, x1 = 0.1547
  molar heat capacity at constant pressure: 257.15 ± 4 J/K/mol
323.14 K, x1 = 0.1999
  molar heat capacity at constant pressure: 261.38 ± 4 J/K/mol
323.14 K, x1 = 0.2993
  molar heat capacity at constant pressure: 267.94 ± 4.2 J/K/mol
323.14 K, x1 = 0.4051
  molar heat capacity at constant pressure: 272.09 ± 4.2 J/K/mol
323.14 K, x1 = 0.4986
  molar heat capacity at constant pressure: 274.67 ± 4.3 J/K/mol
323.14 K, x1 = 0.5981
  molar heat capacity at constant pressure: 275.95 ± 4.3 J/K/mol
323.14 K, x1 = 0.7015
  molar heat capacity at constant pressure: 276.7 ± 4.3 J/K/mol
323.14 K, x1 = 0.8023
  molar heat capacity at constant pressure: 276.15 ± 4.3 J/K/mol
323.14 K, x1 = 0.9139
  molar heat capacity at constant pressure: 275.08 ± 4.3 J/K/mol
323.14 K, x1 = 0.9609
  molar heat capacity at constant pressure: 273.92 ± 4.2 J/K/mol
324.15 K, x1 = 0.0061
  molar heat capacity at constant pressure: 234.52 ± 3.6 J/K/mol
324.15 K, x1 = 0.0249
  molar heat capacity at constant pressure: 236.43 ± 3.7 J/K/mol
324.15 K, x1 = 0.0494
  molar heat capacity at constant pressure: 241.45 ± 3.7 J/K/mol
324.15 K, x1 = 0.1
  molar heat capacity at constant pressure: 250.6 ± 3.9 J/K/mol
324.15 K, x1 = 0.1547
  molar heat capacity at constant pressure: 257.46 ± 4 J/K/mol
324.15 K, x1 = 0.1999
  molar heat capacity at constant pressure: 261.78 ± 4.1 J/K/mol
324.15 K, x1 = 0.2993
  molar heat capacity at constant pressure: 268.5 ± 4.2 J/K/mol
324.15 K, x1 = 0.4051
  molar heat capacity at constant pressure: 272.8 ± 4.2 J/K/mol
324.15 K, x1 = 0.4986
  molar heat capacity at constant pressure: 275.41 ± 4.3 J/K/mol
324.15 K, x1 = 0.5981
  molar heat capacity at constant pressure: 276.79 ± 4.3 J/K/mol
324.15 K, x1 = 0.7015
  molar heat capacity at constant pressure: 277.57 ± 4.3 J/K/mol
324.15 K, x1 = 0.8023
  molar heat capacity at constant pressure: 277.05 ± 4.3 J/K/mol
324.15 K, x1 = 0.9139
  molar heat capacity at constant pressure: 275.96 ± 4.3 J/K/mol
324.15 K, x1 = 0.9609
  molar heat capacity at constant pressure: 274.86 ± 4.3 J/K/mol
325.15 K, x1 = 0.0061
  molar heat capacity at constant pressure: 234.92 ± 3.6 J/K/mol
325.15 K, x1 = 0.0249
  molar heat capacity at constant pressure: 236.8 ± 3.7 J/K/mol
325.15 K, x1 = 0.0494
  molar heat capacity at constant pressure: 241.6 ± 3.7 J/K/mol
325.15 K, x1 = 0.1
  molar heat capacity at constant pressure: 250.76 ± 3.9 J/K/mol
325.15 K, x1 = 0.1547
  molar heat capacity at constant pressure: 257.7 ± 4 J/K/mol
325.15 K, x1 = 0.1999
  molar heat capacity at constant pressure: 262.12 ± 4.1 J/K/mol
325.15 K, x1 = 0.2993
  molar heat capacity at constant pressure: 269.04 ± 4.2 J/K/mol
325.15 K, x1 = 0.4051
  molar heat capacity at constant pressure: 273.4 ± 4.2 J/K/mol
325.15 K, x1 = 0.4986
  molar heat capacity at constant pressure: 276.1 ± 4.3 J/K/mol
325.15 K, x1 = 0.5981
  molar heat capacity at constant pressure: 277.56 ± 4.3 J/K/mol
325.15 K, x1 = 0.7015
  molar heat capacity at constant pressure: 278.38 ± 4.3 J/K/mol
325.15 K, x1 = 0.8023
  molar heat capacity at constant pressure: 277.92 ± 4.3 J/K/mol
325.15 K, x1 = 0.9139
  molar heat capacity at constant pressure: 276.88 ± 4.3 J/K/mol
325.15 K, x1 = 0.9609
  molar heat capacity at constant pressure: 275.71 ± 4.3 J/K/mol
326.14 K, x1 = 0.0061
  molar heat capacity at constant pressure: 235.39 ± 3.6 J/K/mol
326.14 K, x1 = 0.0249
  molar heat capacity at constant pressure: 237.1 ± 3.7 J/K/mol
326.14 K, x1 = 0.0494
  molar heat capacity at constant pressure: 241.8 ± 3.8 J/K/mol
326.14 K, x1 = 0.1
  molar heat capacity at constant pressure: 250.96 ± 3.9 J/K/mol
326.14 K, x1 = 0.1547
  molar heat capacity at constant pressure: 258.02 ± 4 J/K/mol
326.14 K, x1 = 0.1999
  molar heat capacity at constant pressure: 262.54 ± 4.1 J/K/mol
326.14 K, x1 = 0.2993
  molar heat capacity at constant pressure: 269.54 ± 4.2 J/K/mol
326.14 K, x1 = 0.4051
  molar heat capacity at constant pressure: 274.06 ± 4.2 J/K/mol
326.14 K, x1 = 0.4986
  molar heat capacity at constant pressure: 276.85 ± 4.3 J/K/mol
326.14 K, x1 = 0.5981
  molar heat capacity at constant pressure: 278.41 ± 4.3 J/K/mol
326.14 K, x1 = 0.7015
  molar heat capacity at constant pressure: 279.29 ± 4.3 J/K/mol
326.14 K, x1 = 0.8023
  molar heat capacity at constant pressure: 278.83 ± 4.3 J/K/mol
326.14 K, x1 = 0.9139
  molar heat capacity at constant pressure: 277.8 ± 4.3 J/K/mol
326.14 K, x1 = 0.9609
  molar heat capacity at constant pressure: 276.69 ± 4.3 J/K/mol
327.14 K, x1 = 0.1999
  molar heat capacity at constant pressure: 262.84 ± 4.1 J/K/mol
327.15 K, x1 = 0.0061
  molar heat capacity at constant pressure: 235.69 ± 3.6 J/K/mol
327.15 K, x1 = 0.0249
  molar heat capacity at constant pressure: 237.39 ± 3.7 J/K/mol
327.15 K, x1 = 0.0494
  molar heat capacity at constant pressure: 241.94 ± 3.8 J/K/mol
327.15 K, x1 = 0.1
  molar heat capacity at constant pressure: 251.07 ± 3.9 J/K/mol
